Results published in publication PMC10590383, “Repurposing conformational changes in ANL superfamily enzymes to rapidly generate biosensors for organic and amino acids” (Nature Communications, 2023).

Key:
Type in all cases: biochemical
[1] = Dose–response curve of purified […] with R-β-phenylalanine
Description: (§1) Fig. 4 Engineering ligand specificity of GrsA-PheA for generating […]s. a The selectivity-conferring code of Phe and Leu A domains. b–f Dose–response curve of purified […]s with increasing concentrations of ligands in 100 mM Tris-HCl buffer (pH=7.5). All data shown are means ± S.D. (n = 3 biologically independent samples). g A series of […] reactions was tested to show the […]’s specificity with 20 proteinogenic amino acids. The values on the heatmap represent the ΔF/F0 value normalized to each […]’s maximal ΔF/F0 value ((ΔF/F0)/maximal ΔF/F0). The concentrations of 20 amino acids were 100 μM. The color indicates the average value of three independent biological replicates after 15 min. All data shown are means ± S.D. (n = 3 biologically independent samples). Source data are provided as a Source data file.
(§2) The study conducted dose–response curve, substrate specificity, and fluorescent spectrum analyses in 100-mM Tris buffer (pH = 7.5), while pH stability experiments were performed in 100-mM Tris buffer at three different pH values (6.5, 7.5, and 8.5) at room temperature. […] protein at a concentration of 0.75 μM, various small molecule concentrations, 1 mM ATP, and 2.5 mM MgCl2 were used in the experiments. Fluorescent signals were detected using a Microplate Reader (Synergy H4, Bio Tek) at an excitation/emission wavelength of 460 nm/510 nm or 480 nm/510 nm. The dose-response curve was determined immediately after the addition of the analyte. The total duration of the measurement was 15 min, with readings taken at one-minute intervals. The dose-response curve was plotted using the fluorescence values obtained after achieving stability in the fluorescence signal. The dose-response curves were fitted using the logistic model LOGISTIC5 available in Origin 2021, which could provide a more adequate fit to asymmetric dose-response data[62],[63]. Excitation spectra were scanned from 300 to 540 nm with a step size of 5 nm, and the emission wavelength was set to 560 nm. Emission spectra were scanned from 470 to 700 nm with a step size of 5 nm, and the excitation wavelength was set to 450 nm. The thermal stability of […] was analyzed using the UNcle multifunctional protein stability analysis system. Measurements were performed in 20 mM MOPS buffer with 2 mM DTT at a sample concentration of 1 mg/mL. Absolute fluorescence quantum yields were measured using an absolute photoluminescence quantum yield spectrometer (FS5, Edinburgh).

[2] = Substrate (ligand) specificity of […]s; settings: Supplementary Fig. 3 c; substrate specificity
Description: as §1
Ligand specificity is an important biosensors feature. Generally, the NRPS A domains have high specificity for their substrates because they are the first “gatekeeper” of NRPSs and ensure that the correct monomers are activated and thioesterified[32],[33]. Therefore, we speculated that this property would be inherited by our […]s because the ligand-binding pockets were unchanged during the […] creation process. Twenty proteinogenic amino acids were used to test the ligand specificity of […]s. […] We also investigated the dependence of […]s on Mg^2+ and ATP (Supplementary Fig. 4). […] This phenomenon corroborates with the distinct conformational changes observed in Hinge A of Nt4CL2 (Mg^2++ATP) (PDB ID: 5BSM) and Nt4CL2 (Coumaroyl-AMP) (PDB ID: 5BST) reported in the literature (Supplementary Fig. 4k), where the direction of motion in hinge A differs. […] During the determination of quantum yield, we observed that the absolute quantum yield of the […] variants ranged from 0.3 to 0.6 upon addition of the respective substrates, which show no significant difference with that reported in literature. The specific values are provided in Supplementary Table 2.
as §2

GECFINDER-Phe3 = target: T1, GECFINDER-Phe3 (Aneurinibacillus migulanus, UniProt P0C061); assay: Fluorescence dose-response of purified cpEGFP sensors (0.75 uM) in 100 mM Tris-HCl pH 7.5, room temperature, 1 mM ATP, 2.5 mM MgCl2; excitation 400, 460 or 480 nm by sensor, emission 510 nm; logistic five-parameter fit.; settings: n = 3
T1 construct: gene grsA; GrsA-PheA-PCP; cpEGFP inserted in hinge B, linkers VF-QS
T1 sequence (P0C061 1-617): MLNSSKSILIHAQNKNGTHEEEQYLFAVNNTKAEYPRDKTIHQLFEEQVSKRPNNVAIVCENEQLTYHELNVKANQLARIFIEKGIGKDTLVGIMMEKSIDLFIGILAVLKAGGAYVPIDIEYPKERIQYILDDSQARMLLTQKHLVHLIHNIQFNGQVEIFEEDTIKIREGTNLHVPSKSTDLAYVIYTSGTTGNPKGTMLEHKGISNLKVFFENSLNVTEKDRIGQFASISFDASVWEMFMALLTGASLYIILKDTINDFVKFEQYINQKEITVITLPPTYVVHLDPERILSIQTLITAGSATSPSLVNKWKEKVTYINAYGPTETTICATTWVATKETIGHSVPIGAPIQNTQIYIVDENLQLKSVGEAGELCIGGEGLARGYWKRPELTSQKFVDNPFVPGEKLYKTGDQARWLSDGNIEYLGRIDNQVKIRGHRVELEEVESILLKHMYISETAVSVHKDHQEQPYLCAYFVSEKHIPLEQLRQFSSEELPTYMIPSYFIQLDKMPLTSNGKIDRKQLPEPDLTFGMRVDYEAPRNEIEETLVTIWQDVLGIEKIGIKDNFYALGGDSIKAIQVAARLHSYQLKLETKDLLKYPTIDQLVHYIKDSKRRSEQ
Description: Fig. 3 Dose–response curves and fluorescence spectrums of […]s. a, c, e, g, i, k Dose–response curve of purified […]s with increasing concentrations of ligand in 100 mM Tris-HCl buffer (pH=7.5). The normalized ΔF/F0 value increased after ligand binding. All data shown are mean ± S.D. (n = 3 biologically independent samples). b, d, f, h, j, l The fluorescence spectra of […]s changed as the ligand concentration increased. All data shown are mean ± S.D. (n = 3 biologically independent samples). Source data are provided as a Source data file.
as §2

GECFINDER-SβF = assay: Fluorescence dose-response of purified binding-pocket-engineered sensors (0.75 uM) in 100 mM Tris-HCl pH 7.5, room temperature, 1 mM ATP, 2.5 mM MgCl2, excitation 460 or 480 nm, emission 510 nm; logistic five-parameter fit.; settings: n = 3
Description: as §1, §2

[3] = Dose–response curve of purified […]s with S-β-phenylalanine
Description: as §1, §2

GECFINDER-Tyr = target: T2, GECFINDER-Tyr (Aneurinibacillus migulanus, UniProt P0C061, W239S); assay: Fluorescence dose-response of purified binding-pocket-engineered sensors (0.75 uM) in 100 mM Tris-HCl pH 7.5, room temperature, 1 mM ATP, 2.5 mM MgCl2, excitation 460 or 480 nm, emission 510 nm; logistic five-parameter fit.; settings: n = 3
T2 construct: gene grsA
Description: as §1, §2

N[C@H](CC(=O)O)c1ccccc1 [R-β-Phe]
AVE, dose-response Fig. 4 f ([1]; substrate R-β-Phe 0.0001 μM): -0.0001175
AVE, dose-response Fig. 4 f ([1]; substrate R-β-Phe 0.001 μM): -0.003533
AVE, dose-response Fig. 4 f ([1]; substrate R-β-Phe 0.01 μM): -3.814e-5
AVE, dose-response Fig. 4 f ([1]; substrate R-β-Phe 0.1 μM): 0.008066
AVE, dose-response Fig. 4 f ([1]; substrate R-β-Phe 1 μM): 0.06811
AVE, dose-response Fig. 4 f ([1]; substrate R-β-Phe 5 μM): 0.06226
AVE, dose-response Fig. 4 f ([1]; substrate R-β-Phe 10 μM): 0.1204
AVE, dose-response Fig. 4 f ([1]; substrate R-β-Phe 50 μM): 0.3026
AVE, dose-response Fig. 4 f ([1]; substrate R-β-Phe 100 μM): 0.3923
AVE, dose-response Fig. 4 f ([1]; substrate R-β-Phe 500 μM): 0.5534
AVE, dose-response Fig. 4 f ([1]; substrate R-β-Phe 1000 μM): 0.5949
AVE, dose-response Fig. 4 f ([1]; substrate R-β-Phe 2000 μM): 0.5892
fluorescence response of GECFINDER to each substrate, AVE of 3 repeats [2]: 0.4936

N[C@@H](CC(=O)O)c1ccccc1 [S-β-Phe, S-β-phenylalanine]
EC50 (GECFINDER-Phe3): 13.6 ± 1.28 µM
EC50 (GECFINDER-SβF): 7.4 ± 0.45 µM

N[C@@H](CC(=O)O)c1ccccc1 [S-β-Phe]
AVE, dose-response Fig. 4 b ([3]; substrate S-β-Phe 0.0001 μM): -0.0002792
AVE, dose-response Fig. 4 b ([3]; substrate S-β-Phe 0.001 μM): -0.0008239
AVE, dose-response Fig. 4 b ([3]; substrate S-β-Phe 0.01 μM): -0.003663
AVE, dose-response Fig. 4 b ([3]; substrate S-β-Phe 0.1 μM): -0.01739
AVE, dose-response Fig. 4 b ([3]; substrate S-β-Phe 1 μM): 0.02113
AVE, dose-response Fig. 4 b ([3]; substrate S-β-Phe 10 μM): 0.3498
AVE, dose-response Fig. 4 b ([3]; substrate S-β-Phe 50 μM): 0.6956
AVE, dose-response Fig. 4 b ([3]; substrate S-β-Phe 100 μM): 0.8621
AVE, dose-response Fig. 4 b ([3]; substrate S-β-Phe 500 μM): 0.9305
AVE, dose-response Fig. 4 b ([3]; substrate S-β-Phe 1000 μM): 0.8832
AVE, dose-response Fig. 4 b ([3]; substrate S-β-Phe 5000 μM): 0.7695
AVE, dose-response Fig. 4 b ([3]; substrate S-β-Phe 10000 μM): 0.7514
AVE, dose-response Fig. 4 f ([3]; substrate S-β-Phe 0.0001 μM): -0.0001186
AVE, dose-response Fig. 4 f ([3]; substrate S-β-Phe 0.001 μM): -0.005617
AVE, dose-response Fig. 4 f ([3]; substrate S-β-Phe 0.01 μM): 0.008482
AVE, dose-response Fig. 4 f ([3]; substrate S-β-Phe 0.1 μM): 0.09012
AVE, dose-response Fig. 4 f ([3]; substrate S-β-Phe 1 μM): 0.4944
AVE, dose-response Fig. 4 f ([3]; substrate S-β-Phe 10 μM): 1.228
AVE, dose-response Fig. 4 f ([3]; substrate S-β-Phe 50 μM): 1.751
AVE, dose-response Fig. 4 f ([3]; substrate S-β-Phe 100 μM): 1.939
AVE, dose-response Fig. 4 f ([3]; substrate S-β-Phe 500 μM): 2.2005
AVE, dose-response Fig. 4 f ([3]; substrate S-β-Phe 1000 μM): 2.208
AVE, dose-response Fig. 4 f ([3]; substrate S-β-Phe 5000 μM): 2.26
AVE, dose-response Fig. 4 f ([3]; substrate S-β-Phe 10000 μM): 2.258
fluorescence response of GECFINDER to each substrate, AVE of 3 repeats [2]: 2.126

N[C@@H](Cc1ccc(O)cc1)C(=O)O [Tyr, tyrosine]
EC50 (GECFINDER-Phe3): 225 ± 17.9 µM
EC50 (GECFINDER-Tyr): 89.8 ± 6.71 µM
